Assay results reported in patent publication US5270165A, “Method of diagnosis of amyloidoses” (The Reagents of the University of California, priority 1991, dated 1993).

Tested on: platelets
Experiment: Secretion of PN-2/βAPP and granule markers from platelets after activation by agonists
Type: cell-based
Conditions: for PN-2/βAPP percent secreted / LDH loss (percent), marker of platelet lysis / ADP/ATP percent secreted / LA-PF4 percent secreted: collagen 20 μg/ml or thrombin 1 U/ml, 10 minutes; for fraction of total platelet PN-2/βAPP secreted on activation: freshly washed platelets
Description: Secretion of PN-2/βAPP from platelets after activation by the agonists collagen or thrombin was studied. Briefly, fresh platelets washed by albumin density gradient centrifugation and gel filtration were incubated for 30 minutes at 37° C. in the absence or presence of the combined metabolic inhibitors antimycin A (15 μg/ml), 2-deoxy-D-glucose (30 mM), and D-gluconic acid δ-lactone (10 mM). The platelets were then placed into a cuvette 37° C. water bath with stirring at 1,200 rpm, and collagen (20 μg/ml or .varies.-thrombin (1 U/ml) was added. After 10 minutes, the samples were centrifuged at 12,000 x g for 4 minutes and supernatants were collected. Aliquots were removed and quantitated for PN-2/βAPP by incubation with ^125 I-EGF BP and analysis of complex formation by SDS-PAGE and autoradiography as in Example 15. Autoradiograms were aligned with dried gels; ^125 I-EGF BP:PN-2/βAPP complexes were located, excised and quantitated in a […]. Aliquots were also quantitated for platelet markers as follows: total adenine nucleotide (ADP/ATP) secretion was measured by the method of Homsen et al., Anal. Biochem., 46:489 (1972); low affinity platelet factor 4 (LA-PF4) secretion was quantitated by the method of Rucinski et al., Blood, 53:47 (1979); and cytosolic lactate dehydrogenase (LDH) loss was assessed by the procedure of Wroblewski and Ladue, Proc. Soc. Exper. Biol. Med., 77:389 (1978), the disclosures of which are hereby incorporated by reference. Values represent the percent secreted. Percent secreted was determined from the ratio of releasate in agonist treated sample to the total amount present in detergent lysate; nonstimulated platelet supernatants were subtracted from both. Values expressed are the mean ±SEM of three experiments, each consisting of combined platelets from two donors.

[1] = Inhibitor-Treated Platelets (antimycin A, 2-deoxy-D-glucose, D-gluconic acid δ-lactone)
[2] = Inhibitor-Treated Platelets, mean ±SEM
[3] = Washed Platelets, 37° C., mean ±SEM of three experiments

Substance	PN-2/βAPP percent secreted [1]	LDH loss (percent), marker of platelet lysis (Inhibitor-Treated Platelets)	ADP/ATP percent secreted [2]	LA-PF4 percent secreted [2]	PN-2/βAPP percent secreted [3]	ADP/ATP percent secreted (Washed Platelets, mean ±SEM)	LA-PF4 percent secreted (Washed Platelets, mean ±SEM)	LDH loss (percent), marker of platelet lysis (Washed Platelets, mean ±SEM)	fraction of total platelet PN-2/βAPP secreted on activation
Collagen	0%	0%	1.3 ± 1.3%	0%	46.3 ± 7.7%	45 ± 16%	52 ± 11%	1.3 ± 1.3%	approximately one-half
Thrombin	0%		0%	0.4 ± 0.4%	53.7 ± 7.6%	68 ± 11%	69 ± 6.2%	0%	approximately one-half
